Data taken from patent US11753378B2, “Ketamine compounds and processes for making and using them” (Zevra Therapeutics, Inc., priority 2021, dated 2023).

Columns and labels:
[1] = Pharmacokinetics of ketamine and norketamine in plasma after oral gavage; conditions: for release of ketamine compared to unconjugated ketamine: administered orally; for release of ketamine compared to unconjugated ketamine / norketamine exposure relative to ketamine exposure compared to unconjugated ketamine: in words
NMDA receptor = conditions: cited from earlier work
[2] = Pharmacokinetics of ketamine and norketamine in plasma after intranasal administration
[3] = analyte ketamine, oral, mean conjugate parameter/mean comparator parameter
[4] = analyte norketamine, oral, mean conjugate parameter/mean comparator parameter
[5] = oral gavage, ketamine % parameter/norketamine % parameter

SMILES: CN(C(=O)OC[n+]1cccc(C(=O)N[C@@H](CCCCN)C(=O)O)c1)C1(c2ccccc2Cl)CCCCC1=O (stereo partly shown) [10g, KTM-CO2CH2-nicotinoyl-Lys]
- release of ketamine compared to unconjugated ketamine [1]: extended or delayed release

SMILES: CN[C@]1(c2ccccc2Cl)CCCCC1=O (single isomer, unassigned) [S(+) isomer, reference compound]
- NMDA receptor antagonist potency relative to the R(−) isomer (NMDA receptor; background statement): approximately three to four times that of the R(−) isomer

SMILES: CC[C@H](C)[C@H](NC(=O)c1ccc[n+](COC(=O)N(C)C2(c3ccccc3Cl)CCCCC2=O)c1)C(=O)O (stereo partly shown) [10e, KTM-CO2CH2-nicotinoyl-Ile]
- norketamine exposure relative to ketamine exposure compared to unconjugated ketamine ([1]; oral): reduced norketamine exposure relative to ketamine exposure

SMILES: CCOC(=O)CN(C)C(=O)c1ccc[n+](COC(=O)N(C)C2(c3ccccc3Cl)CCCCC2=O)c1.[Cl-] (racemic) [9b, KTM-CO2CH2-nicotinoyl-Sar(Et)]
- % AUC0-4 hr, relative oral bioavailability of ketamine vs study comparator (Ketamine HCl) [1, 3]: 123%
- % Cmax, relative oral bioavailability of ketamine vs study comparator (Ketamine HCl) [1, 3]: 124%
- % AUC0-4 hr, relative oral bioavailability of norketamine vs study comparator (Ketamine HCl) [1, 4]: 62.7%
- % Cmax, relative oral bioavailability of norketamine vs study comparator (Ketamine HCl) [1, 4]: 66.9%
- % Exposure Ratio Ketamine:Norketamine, AUC0-4 hr [1, 5]: 1.96
- % Exposure Ratio Ketamine:Norketamine, Cmax [1, 5]: 1.85
- norketamine exposure relative to ketamine exposure compared to unconjugated ketamine ([1]; oral): reduced norketamine exposure relative to ketamine exposure
- % AUC0-1 hr, relative intranasal bioavailability of ketamine vs study comparator (Ketamine HCl) ([2]; analyte ketamine, intranasal, mean conjugate parameter/mean comparator parameter): 68.1%
- % Cmax, relative intranasal bioavailability of ketamine vs study comparator (Ketamine HCl) ([2]; analyte ketamine, intranasal, mean conjugate parameter/mean comparator parameter, 10k: time course stopped at 0.5 hours): 62.0%
- % AUC0-1 hr, relative intranasal bioavailability of norketamine vs study comparator (Ketamine HCl) ([2]; analyte norketamine, intranasal, mean conjugate parameter/mean comparator parameter): 39.5%
- % Cmax, relative intranasal bioavailability of norketamine vs study comparator (Ketamine HCl) ([2]; analyte norketamine, intranasal, mean conjugate parameter/mean comparator parameter, 10k: time course stopped at 0.5 hours): 37.1%
- % Exposure Ratio PO:IN, Cmax ([2]; ketamine % parameter PO/ketamine % parameter IN): 2.00
- % Exposure Ratio PO:IN, AUC ([2]; ketamine % parameter PO/ketamine % parameter IN, AUC0-4 h for PO and AUC0-1 h for IN): 1.80

SMILES: CC(C)[C@H](NC(=O)c1ccc[n+](COC(=O)N(C)C2(c3ccccc3Cl)CCCCC2=O)c1)C(=O)O (stereo partly shown) [10d, KTM-CO2CH2-nicotinoyl-Val]
- norketamine exposure relative to ketamine exposure compared to unconjugated ketamine ([1]; oral): reduced norketamine exposure relative to ketamine exposure

SMILES: CN(CC(=O)O)C(=O)c1cc[n+](COC(=O)N(C)C2(c3ccccc3Cl)CCCCC2=O)cc1 (stereo not shown) [11b, KTM-CO2CH2-isonicotinoyl-Sar]
- release of ketamine compared to unconjugated ketamine [1]: extended or delayed release
- norketamine exposure relative to ketamine exposure compared to unconjugated ketamine ([1]; oral): reduced norketamine exposure relative to ketamine exposure

SMILES: CN(C(=O)OC[n+]1cccc(C(=O)N[C@@H](CCC(N)=O)C(=O)O)c1)C1(c2ccccc2Cl)CCCCC1=O (stereo partly shown) [10k, KTM-CO2CH2-nicotinoyl-Gln]
- norketamine exposure relative to ketamine exposure compared to unconjugated ketamine ([1]; oral): reduced norketamine exposure relative to ketamine exposure

SMILES: CC(C)[C@H](NC(=O)c1ccc[n+](COC(=O)N(C)[C@]2(c3ccccc3Cl)CCCCC2=O)c1)C(=O)O [S-10d, (S)-KTM-CO2CH2-nicotinoyl-Val]
- norketamine exposure relative to ketamine exposure compared to unconjugated ketamine ([1]; oral): reduced norketamine exposure relative to ketamine exposure

SMILES: NC1(c2ccccc2Cl)CCCCC1=O (stereo not shown) [norketamine]
- NMDA receptor antagonist potency compared to ketamine (NMDA receptor; statement in words): less potent antagonist

SMILES: CN(C(=O)OCOC(=O)c1ccncc1)C1(c2ccccc2Cl)CCCCC1=O.Cl (stereo not shown) [3b, Isonicotinate-CH2OCO-KTM HCl]
- norketamine exposure relative to ketamine exposure compared to unconjugated ketamine ([1]; oral): reduced norketamine exposure relative to ketamine exposure

SMILES: CSCC[C@H](NC(=O)c1ccc[n+](COC(=O)N(C)C2(c3ccccc3Cl)CCCCC2=O)c1)C(=O)O (stereo partly shown) [10s, KTM-CO2CH2-nicotinoyl-Met]
- norketamine exposure relative to ketamine exposure compared to unconjugated ketamine ([1]; oral): reduced norketamine exposure relative to ketamine exposure

SMILES: CN(C(=O)OC[n+]1cccc(C(=O)N2CCC[C@H]2C(=O)O)c1)C1(c2ccccc2Cl)CCCCC1=O (stereo partly shown) [10f, KTM-CO2CH2-nicotinoyl-Pro]
- norketamine exposure relative to ketamine exposure compared to unconjugated ketamine ([1]; oral): reduced norketamine exposure relative to ketamine exposure
